Laboratory results reported in PubChem BioAssay (NCI).
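Assay format: 96-well plates, 48-hour exposure. At the GI50, growth is halved. TGI marks complete inhibition of growth.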

What was measured:
Assay in all cases: NCI-60 cell line screen, 48 h
MOLT-4 leukemia = test system: MOLT-4 leukemia
NCI-H226 lung = test system: NCI-H226 lung
NCI-H23 lung = test system: NCI-H23 lung
NCI-H460 lung = test system: NCI-H460 lung
NCI-H522 lung = test system: NCI-H522 lung
NCI/ADR-RES ovarian = test system: NCI/ADR-RES ovarian
OVCAR-3 ovarian = test system: OVCAR-3 ovarian
OVCAR-4 ovarian = test system: OVCAR-4 ovarian
OVCAR-5 ovarian = test system: OVCAR-5 ovarian
OVCAR-8 ovarian = test system: OVCAR-8 ovarian
PC-3 prostate = test system: PC-3 prostate
RPMI-8226 leukemia = test system: RPMI-8226 leukemia
RXF 393 renal = test system: RXF 393 renal
SF-268 CNS = test system: SF-268 CNS
SF-295 CNS = test system: SF-295 CNS
SF-539 CNS = test system: SF-539 CNS
SK-MEL-2 melanoma = test system: SK-MEL-2 melanoma
SK-MEL-28 melanoma = test system: SK-MEL-28 melanoma
SK-MEL-5 melanoma = test system: SK-MEL-5 melanoma
SN12C renal = test system: SN12C renal
SNB-75 CNS = test system: SNB-75 CNS
SR leukemia = test system: SR leukemia
SW-620 colon = test system: SW-620 colon
T-47D breast = test system: T-47D breast
U251 CNS = test system: U251 CNS
UACC-257 melanoma = test system: UACC-257 melanoma
UACC-62 melanoma = test system: UACC-62 melanoma
UO-31 renal = test system: UO-31 renal

In the case of `CNCCNc1nc2ccccc2c2c(=O)c3cccc(C)c3sc12`, the TGI (MOLT-4 leukemia) is reported as 3.42 µM, the GI50 (NCI-H226 lung) is reported as 7.19 µM and the TGI (NCI-H226 lung) is reported as 16.7 µM. For the same compound, the GI50 (NCI-H23 lung) was 5.13 µM, the TGI (NCI-H23 lung) was 11.7 µM and the GI50 (NCI-H460 lung) was 0.917 µM. The TGI (NCI-H460 lung) was 2.05 µM, the GI50 (NCI-H522 lung) was 1.3 µM and the TGI (NCI-H522 lung) was 4.42 µM. It also gave a GI50 (NCI/ADR-RES ovarian) of 1.76 µM, a TGI (NCI/ADR-RES ovarian) of 7.35 µM and a GI50 (OVCAR-3 ovarian) of 1.47 µM. For the same compound, the TGI (OVCAR-3 ovarian) was 5.27 µM, the GI50 (OVCAR-4 ovarian) was 2.1 µM and the TGI (OVCAR-4 ovarian) was 8.75 µM. For the same compound, the GI50 (OVCAR-5 ovarian) was 3.91 µM, the TGI (OVCAR-5 ovarian) was 10.6 µM and the GI50 (OVCAR-8 ovarian) was 1.94 µM. The TGI (OVCAR-8 ovarian) was 7.65 µM, the GI50 (PC-3 prostate) was 1.55 µM and the TGI (PC-3 prostate) was 8.7 µM. For the same compound, the GI50 (RPMI-8226 leukemia) was 1.16 µM, the TGI (RPMI-8226 leukemia) was 2.96 µM and the GI50 (RXF 393 renal) was 3.08 µM. For the same compound, the TGI (RXF 393 renal) was 9.72 µM, the GI50 (SF-268 CNS) was 3.53 µM and the TGI (SF-268 CNS) was 11.4 µM. For the same compound, the GI50 (SF-295 CNS) was 5.54 µM, the TGI (SF-295 CNS) was 12.1 µM and the GI50 (SF-539 CNS) was 6.42 µM. The TGI (SF-539 CNS) was 12.8 µM, the GI50 (SK-MEL-2 melanoma) was 1.28 µM and the TGI (SK-MEL-2 melanoma) was 3.36 µM. It also gave a GI50 (SK-MEL-28 melanoma) of 4.08 µM, a TGI (SK-MEL-28 melanoma) of 10.5 µM and a GI50 (SK-MEL-5 melanoma) of 6.14 µM. The TGI (SK-MEL-5 melanoma) was 12.6 µM, the GI50 (SN12C renal) was 2.04 µM and the TGI (SN12C renal) was 8.37 µM. The GI50 (SNB-75 CNS) was 1.14 µM, the TGI (SNB-75 CNS) was 8.49 µM and the GI50 (SR leukemia) was 0.94 µM. For the same compound, the TGI (SR leukemia) was 2.51 µM, the GI50 (SW-620 colon) was 0.915 µM and the TGI (SW-620 colon) was 1.92 µM. It also gave a GI50 (T-47D breast) of 0.876 µM, a TGI (T-47D breast) of 2.25 µM and a GI50 (U251 CNS) of 0.968 µM. It also gave a TGI (U251 CNS) of 2.25 µM, a GI50 (UACC-257 melanoma) of 0.944 µM and a TGI (UACC-257 melanoma) of 1.95 µM. The GI50 (UACC-62 melanoma) was 1.15 µM, the TGI (UACC-62 melanoma) was 3.39 µM and the GI50 (UO-31 renal) was 0.79 µM. It also gave a TGI (UO-31 renal) of 7.12 µM.
